From ChEMBL document CHEMBL1201862, “PubChem BioAssay data set” (2004)
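Compound exposure: 48 hours, 5 concentrations, 96-well plates. Here, GI50 denotes the concentration required for 50% inhibition of growth.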 Active and inactive are the calls of the source. Rule as the data show it: active = GI50 up to about 1.1 µM and inactive = higher.

Assays:
Experiment in all cases: DTP human tumour cell line panel, 48 h
[1] = test system: OVCAR-4
[2] = test system: MDA-MB-231
[3] = test system: NCI/ADR-RES
[4] = test system: BT-549
[5] = test system: M14
[6] = test system: U-251
[7] = test system: SF-539
[8] = test system: ACHN
[9] = test system: CCRF-CEM
[10] = test system: A549
[11] = test system: MDA-N
[12] = test system: A498
[13] = test system: SW-620
[14] = test system: NCI-H460
[15] = test system: COLO 205
[16] = test system: SK-OV-3
[17] = test system: SR
[18] = test system: HL-60
[19] = test system: EKVX
[20] = test system: RPMI-8226

Measured: GI50

COc1ccccc1Nc1nc(N)nc(N)c1N
inactive: [1] > 100 µM | [2] 29.4 µM | [3] > 100 µM | [4] > 100 µM | [5] > 100 µM | [6] 64.3 µM | [7] 50.6 µM | [8] > 100 µM | [9] 27 µM | [10] > 100 µM | [11] 17.6 µM | [12] > 100 µM | [13] 27.2 µM | [14] 38.5 µM | [15] 48.2 µM | [16] > 100 µM | [17] 23.7 µM | [18] 29.1 µM | [19] > 100 µM | [20] 34.4 µM

COC(=O)C[C@H](CCSC)NC(=O)C[C@H](CCSC)NC(=O)C[C@H](CCSC)NC(=O)OC(C)(C)C
inactive: [1] 20.3 µM | [2] 38.5 µM | [3] > 100 µM | [4] 69.3 µM | [5] 57.5 µM | [6] 19.5 µM | [7] 17.5 µM | [8] 36.9 µM | [9] 67.1 µM | [10] 43.6 µM | [11] 48.3 µM | [12] 21 µM | [13] > 100 µM | [14] 69.8 µM | [15] > 100 µM | [16] 20 µM | [17] 39.6 µM | [18] 1.44 µM | [19] 34.8 µM | [20] > 100 µM

O=C1SC(SCc2ccccc2)=NC12CC2c1ccccc1 (stereo not given)
inactive: [1] 16 µM | [2] 20.3 µM | [3] 23.9 µM | [4] 20.2 µM | [5] 17.4 µM | [6] 18.3 µM | [7] 20.7 µM | [8] 17.9 µM | [9] 2.93 µM | [10] 26.9 µM | [11] 20.9 µM | [12] 25.5 µM | [13] 22.4 µM | [14] 18.7 µM | [15] 23.4 µM | [16] 37.7 µM | [17] 21.3 µM | [18] 3.56 µM | [19] 20.2 µM | [20] 16.7 µM

Fc1cccc(F)c1C1SCC2=Nc3ccccc3CN21 (stereo not given)
inactive: [1] > 100 µM | [2] > 100 µM | [3] 22.4 µM | [4] 98.6 µM | [5] 91.2 µM | [6] > 100 µM | [7] 26.7 µM | [8] 33.7 µM | [9] > 100 µM | [10] 63 µM | [11] > 100 µM | [12] > 100 µM | [13] > 100 µM | [14] 71 µM | [15] > 100 µM | [16] 36.8 µM | [17] 37.8 µM | [18] 44.2 µM | [19] 79.6 µM | [20] 56.1 µM

CSc1nc(SC)c2c(C)c(Br)[nH]c2n1
inactive: [1] > 100 µM | [2] > 100 µM | [3] > 100 µM | [4] > 100 µM | [5] > 100 µM | [6] > 100 µM | [7] 54.6 µM | [8] > 100 µM | [9] > 100 µM | [10] > 100 µM | [11] > 100 µM | [12] > 100 µM | [13] > 100 µM | [14] > 100 µM | [15] > 100 µM | [16] > 100 µM | [17] > 100 µM | [18] > 100 µM | [19] 70.5 µM | [20] > 100 µM

COc1ccc(C[N+](C)(C)N)cc1OC
inactive: [1] > 10 µM | [2] > 10 µM | [3] > 10 µM | [4] > 10 µM | [5] > 10 µM | [6] > 10 µM | [7] > 10 µM | [8] > 10 µM | [9] > 10 µM | [10] > 10 µM | [11] > 10 µM | [12] > 100 µM | [13] > 10 µM | [14] > 100 µM | [15] > 10 µM | [16] > 10 µM | [17] > 10 µM | [18] > 10 µM | [19] > 100 µM | [20] > 10 µM

CN1CCN(CCCCN2c3ccccc3Sc3ccc(N=[N+]=[N-])cc32)CC1
inactive: [1] 10.2 µM | [2] 4.3 µM | [3] 11.7 µM | [4] 9.77 µM | [5] 2.05 µM | [6] 4.95 µM | [7] 7.35 µM | [8] 8.65 µM | [9] 2.6 µM | [10] 12.9 µM | [11] 2.88 µM | [12] 13.8 µM | [13] 2.68 µM | [14] 6.01 µM | [15] 1.86 µM | [16] > 10 µM | [17] 2.58 µM | [18] 1.95 µM | [19] 13.6 µM | [20] 2.36 µM
